Source: US20210238197A1, “NOVEL OXOQUINOLIZINE COMPOUNDS FOR THE TREATMENT AND PROPHYLAXIS OF BACTERIAL INFECTION” (Hoffmann-La Roche Inc., priority 2018, published 2021)
In brackets after ≈: the same amount, converted by molar mass. Like-named read-outs stand apart in the source and are kept apart here.

Legend:
A. baumannii (ATCC17978) = assay: 50% growth inhibitory concentration (IC50) determination assay, A. baumannii; assay type: cell-based; conditions: Iso-Sensitest broth, growth by OD 600 nm over 16 h, <0.098 = detection limit
Method: (§1) The in vitro antimicrobial activity of the compounds against S. aureus (ATCC29213), K. pneumoniae (ATCC10031), and A. baumannii (ATCC17978), was determined according to the following procedure: The assay used a 10-points Iso-Sensitest broth medium to measure quantitatively the in vitro activity of the compounds against S. aureus ATCC29213, K. pneumoniae ATCC 10031, and A. baumannii ATCC17978. Stock compounds in DMSO were serially two-fold diluted (range from 50 to 0.097 μM final concentration) in 384 wells microtiter plates and inoculated with 49 μL the bacterial suspension in Iso-Sensitest broth medium to have a final cell concentration of ˜5×10^5 CFU/mL in a final volume/well of 50 μL/well. Microtiter plates were incubated at 35±2° C. Bacterial cell growth was determined with the measurement of optical density at λ=600 nm each 20 minutes over a time course of 16 h.

[1] = tested on: multiple species and strains; assay: microbe, parasite or virus in culture; parameters: MIC S9 / MIC S7 / MIC S11 / MIC S8 / MIC S10: unit not given beside the values; conditions: for MIC S9: E. coli ATCC 35218
Method: The MIC of antibacterial compounds against multiple species and strains was determined using the broth microdilution method according to M07-A10 Clinical and Laboratory Standards Institute (CLSI) guidelines (CLSI (2015) Methods for dilution antimicrobial susceptibility tests for bacteria that grow aerobically; Approved Standard, Tenth Edition. CLSI Document M7-A10 (ISBN 1-56238-987-4). Wayne, Pa.: Clinical and Laboratory Standards Institute, 19087, USA.). In short, bacterial strain preparation was performed on D1 and D2. […] 5-10 well-isolated colonies of similar morphology were selected and re-streaked onto fresh agar plates using sterile loops and incubated for 20-24 hr at 35±2° C. Bacterial strains were subcultured two times to ensure fresh inoculums for MIC screening. […] Alternatively, 1-2 colonies were transferred into 500 μL of saline and OD600 was adjusted to ˜0.1 using an OD meter. Bacterial inoculum was diluted by 1:280 for Gram-positive strains and 1:400 for Gram-negative strains into corresponding medium broth (CAMHB, CAMHB+3% lysed horse blood, HTM) (e.g. 35.6 μL of inoculum into 10 mL of CAMHB or 25 μL of inoculum into 10 mL of CAMHB). For compound plate, the compound stock solutions were prepared in 100% DMSO on the day of MIC screening and used immediately. Compound stock concentration=[(highest testing concentration)×100 μL/2 μL] (e.g. if the required highest testing concentration is 64 μg/mL in assay plates, stock concentration=64 μg/mL×100 μL/2 μL=3.2 mg/mL). […] 1 μL of each well was transferred in a new MTP, which served as the test plate by subsequent inoculation. The bacterial suspension prepared above is dispensed at 98 μL/well within 15 minutes after preparation. Negative controls (lack of bacterial cells) and growth control wells (lack of compound) were included in all plates. MTPs were incubated for 18-24 hours at 35±2° C. in ambient air. The MIC was recorded and CFUs were calculated on Day 4. The assay plate was placed on the top of MIC reader, and the magnification mirror was adjusted to read each wells, recording growth status as raw data. Photo images of each assay plates were recorded using Q Count 530 (Spiral Biotech). The MIC value of each compound, expressed as μg/mL, was determined as the lowest concentration required for complete growth inhibition (no visible growth).

S. aureus (ATCC29213) = assay: 50% growth inhibitory concentration (IC50) determination assay, S. aureus; assay type: cell-based; conditions: Iso-Sensitest broth, growth by OD 600 nm over 16 h, <0.098 = detection limit
Method: as §1

[2] = tested on: K. pneumoniae (ATCC10031); assay: 50% growth inhibitory concentration (IC50) determination assay, K. pneumoniae; assay type: cell-based; conditions: Iso-Sensitest broth, growth by OD 600 nm over 16 h, <0.098 = detection limit
Method: as §1

[3] = Cytotoxicity assay (HepG2, CellTiter-Blue); assay type: cell-based; conditions: human; HepG2 cells, 3 days treatment; >100 = detection limit
Method: The cytotoxicity of compounds of present invention was assessed by HepG2 assay. HepG2 cells (ATCC RB-8065™) were seeded into 96-well plates (1.2×10^4 cells per well) and treated with compounds for 3 days, cell viability was measured at day 3 post compound treatment using the CellTiter-Blue® Cell Viability Assay (Promega, Cat. No. G8082). […], of Cell titer blue buffer were added to each well of the cells, which were incubated for 3 hours at 37° C., and the fluorescence value was measured by a plate reader (Molecular Device SpectraMax M2). The CC50 value of each compound is plotted with GraphPad Prism using four parameter logistic equation.

[4] = Acinetobacter baumannii, ATCC17978
[5] = Acinetobacter baumannii, ATCC19606, read-out: MIC S1, A. baumannii ATCC 19606
[6] = Acinetobacter baumannii, ATCC51432, read-out: MIC S2, A. baumannii ATCC 51432
[7] = Acinetobacter baumannii, ATCCBAA747, read-out: MIC S3, A. baumannii ATCC BAA-747
[8] = Escherichia coli, ATCC25922, read-out: MIC S11, E. coli ATCC 25922
[9] = Escherichia coli, ATCCBAA2340, read-out: MIC S10, E. coli ATCC BAA-2340
[10] = Klebsiella pneumoniae, ATCC10031, read-out: MIC S4, K. pneumoniae ATCC 10031
[11] = Klebsiella pneumoniae, ATCC700603, read-out: MIC S5, K. pneumoniae ATCC 700603
[12] = Klebsiella pneumoniae, ATCCBAA2146, read-out: MIC S6, K. pneumoniae ATCC BAA-2146
[13] = Pseudomonas aeruginosa, ATCC27853, read-out: MIC S7, P. aeruginosa ATCC 27853
[14] = Pseudomonas aeruginosa, ATCCBAA2113, read-out: MIC S8, P. aeruginosa ATCC BAA-2113
[15] = Staphylococcus aureus, ATCC29213
[16] = Klebsiella pneumoniae, ATCC10031

SMILES	MIC S9 [1]	IC50 (A. baumannii (ATCC17978); [4]) [nM]	MIC [1, 5] [µg/mL]	MIC [1, 6] [µg/mL]	MIC [1, 7] [µg/mL]	MIC [1, 8] [µg/mL]	MIC [1, 9] [µg/mL]	MIC [1, 10] [µg/mL]	MIC [1, 11] [µg/mL]	MIC [1, 12] [µg/mL]	MIC [1, 13] [µg/mL]	MIC [1, 14] [µg/mL]	IC50 (S. aureus (ATCC29213); [15]) [nM]	IC50 [2, 16] [nM]	other results
CNc1cc(F)c(C#N)c2c1[nH]c1ncc(-c3ccc4ccc(C(=O)O)c(=O)n4c3)c(N3C[C@H]4CCN(C)[C@H]4C3)c12 (single isomer, unassigned) [Example 1.16, 7-[4-[cis-1-methyl-2,3,3a,4,6,6a-hexahydropyrrolo[3,4-b]pyrrol-5-yl]-5-cyano-6-fluoro-8-(methylamino)-9H-pyrido[2,3-b]indol-3-yl]-4-oxo-quinolizine-3-carboxylic acid]	0.216	–	–	–	–	–	–	–	–	–	–	–	–	–	IC50 (A. baumannii (ATCC17978)): < 98 nM; MIC S1 ([1]; A. baumannii ATCC 19606): 0.431; MIC S2 ([1]; A. baumannii ATCC 51432): 0.216; MIC S3 ([1]; A. baumannii ATCC BAA-747): 0.216; MIC S11 ([1]; E. coli ATCC 25922): 0.040; MIC S10 ([1]; E. coli ATCC BAA-2340): 0.216; MIC S4 ([1]; K. pneumoniae ATCC 10031): 0.027; MIC S5 ([1]; K. pneumoniae ATCC 700603): 1.724; MIC S6 ([1]; K. pneumoniae ATCC BAA-2146): 1.724; MIC S7 ([1]; P. aeruginosa ATCC 27853): 0.431; MIC S8 ([1]; P. aeruginosa ATCC BAA-2113): 3.447; IC50 (S. aureus (ATCC29213)): < 98 nM; IC50 [2]: < 98 nM
CNc1cc(F)c(F)c2c1[nH]c1ncc(-c3ccc4ccc(C(=O)O)c(=O)n4c3)c(N3CC[C@@]4(C[C@@H]4N)C3)c12 (single isomer, unassigned) [Example 4.01A]	0.297	< 98	0.445 (≈ 0.839 µM)	0.445 (≈ 0.839 µM)	0.592 (≈ 1.12 µM)	0.111 (≈ 0.209 µM)	0.297 (≈ 0.56 µM)	0.074 (≈ 0.139 µM)	2.37 (≈ 4.47 µM)	2.37 (≈ 4.47 µM)	0.592 (≈ 1.12 µM)	1.19 (≈ 2.24 µM)	< 98	< 98	–
CNc1cc(F)c(F)c2c1[nH]c1ncc(-c3ccc4ccc(C(=O)O)c(=O)n4c3)c(N(C)C)c12 [Example 1.01, 7-(4-(Dimethylamino)-5,6-difluoro-8-(methylamino)-9H-pyrido[2,3-b]indol-3-yl)-4-oxo-411-quinolizine-3-carboxylic acid]	0.113	< 98	0.057 (≈ 0.123 µM)	0.45 (≈ 0.971 µM)	0.225 (≈ 0.485 µM)	0.169 (≈ 0.365 µM)	0.225 (≈ 0.485 µM)	0.057 (≈ 0.123 µM)	0.45 (≈ 0.971 µM)	1.8 (≈ 3.89 µM)	0.901 (≈ 1.94 µM)	0.901 (≈ 1.94 µM)	< 98	< 98	–
CNc1cc(F)c(F)c2c1[nH]c1ncc(-c3ccc4ccc(C(=O)O)c(=O)n4c3)c(N3CC4[C@H](CC[C@H]4N(C)C)C3)c12 (stereo partly drawn) [Example 1.05, 7-[4-[cis-(4R)-4-(dimethylamino)-3,3a,4,5,6,6a-hexahydro-1H-cyclopenta[c]pyrrol-2-yl]-5,6-difluoro-8-(methylamino)-9H-pyrido[2,3-b]indol-3-yl]-4-oxo-quinolizine-3-carboxylic acid]	–	–	–	–	–	–	–	–	–	–	–	–	–	–	CC50 at 3 days [3]: 15500 nM
CNc1cc(F)c(Cl)c2c1[nH]c1ncc(-c3ccc4ccc(C(=O)O)c(=O)n4c3)c(N3CC[C@H]4CN(C)C[C@H]43)c12 [Example 1.07, 7-(5-chloro-6-fluoro-8-(methylamino)-4-((3aS,6aS)-5-methyl-2,3,3a,4,6,6a-hexahydropyrrolo[2,3-c]pyrrol-1-yl)-9H-pyrido[2,3-b]indol-3-yl)-4-oxo-4H-quinolizine-3-carboxylic acid]	0.132	< 98	0.066 (≈ 0.118 µM)	0.066 (≈ 0.118 µM)	0.263 (≈ 0.469 µM)	0.049 (≈ 0.0873 µM)	0.132 (≈ 0.235 µM)	0.033 (≈ 0.0588 µM)	1.05 (≈ 1.88 µM)	0.527 (≈ 0.939 µM)	0.527 (≈ 0.939 µM)	8.44 (≈ 15 µM)	< 98	< 98	–
CNc1cc(F)c(Cl)c2c1[nH]c1ncc(-c3ccc4ccc(C(=O)O)c(=O)n4c3)c(N3C[C@H]4CC[C@@H](N(C)C)[C@H]4C3)c12 [Example 1.08, 7-[4-[cis-(4R)-4-(dimethylamino)-3,3a,4,5,6,6a-hexahydro-1H-cyclopenta[c]pyrrol-2-yl]-5-chloro-6-fluoro-8-(methylamino)-9H-pyrido[2,3-b]indol-3-yl]-4-oxo-quinolizine-3-carboxylic acid]	0.548	< 98	0.274 (≈ 0.465 µM)	0.274 (≈ 0.465 µM)	0.548 (≈ 0.93 µM)	0.206 (≈ 0.35 µM)	0.548 (≈ 0.93 µM)	0.069 (≈ 0.117 µM)	4.39 (≈ 7.46 µM)	2.2 (≈ 3.73 µM)	2.2 (≈ 3.73 µM)	4.39 (≈ 7.46 µM)	< 98	< 98	–
CNc1cc(F)c(F)c2c1[nH]c1ncc(-c3ccc4ccc(C(=O)O)c(=O)n4c3)c(N3C[C@H]4CCN(C)[C@H]4C3)c12 [Example 3.03A, 7-[4-[(3aR,6aR)-1-methyl-2,3,3a,4,6,6a-hexahydropyrrolo[3,4-b]pyrrol-5-yl]-5,6-difluoro-8-(methylamino)-9H-pyrido[2,3-b]indol-3-yl]-4-oxo-quinolizine-3-carboxylic acid]	0.425	< 98	0.106 (≈ 0.195 µM)	0.212 (≈ 0.389 µM)	0.212 (≈ 0.389 µM)	0.08 (≈ 0.147 µM)	0.425 (≈ 0.78 µM)	0.027 (≈ 0.0496 µM)	3.4 (≈ 6.25 µM)	1.7 (≈ 3.13 µM)	0.85 (≈ 1.56 µM)	3.4 (≈ 6.25 µM)	< 98	< 98	–
CNc1cc(F)c(F)c2c1[nH]c1ncc(-c3ccc4ccc(C(=O)O)c(=O)n4c3)c(N3CC[C@H]4CCN(C)[C@H]4C3)c12 [Example 3.04A, 7-[4-[(3aR,7aR)-1-methyl-3,3a,4,5,7,7a-hexahydro-2H-pyrrolo[2,3-c]pyridin-6-yl]-5,6-difluoro-8-(methylamino)-9H-pyrido[2,3-b]indol-3-yl]-4-oxo-quinolizine-3-carboxylic acid]	0.218	< 98	0.218 (≈ 0.39 µM)	0.218 (≈ 0.39 µM)	0.218 (≈ 0.39 µM)	0.082 (≈ 0.147 µM)	0.218 (≈ 0.39 µM)	0.027 (≈ 0.0483 µM)	1.75 (≈ 3.13 µM)	1.75 (≈ 3.13 µM)	0.436 (≈ 0.781 µM)	3.49 (≈ 6.25 µM)	< 98	< 98	–
